# In patent US8389527B2, “Substituted imidazopyridazines useful as kinase inhibitors” (Bristol-Myers Squibb Company, priority 2008, dated 2013):
# What was measured:
# recombinant CK2A1 = target: T1, recombinant CK2A1 (Homo sapiens, UniProt P68400); assay: CK2 kinase assay (CK2A1), [γ-33P]ATP filter-binding; assay type: biochemical; settings: recombinant CK2A1 10 nM, ATP 25 μM, 10 μM peptide substrate, 30° C. 1 h
# T1 construct: purchased Invitrogen
# Method: (§1) The effectiveness of compounds of the present invention as inhibitors of protein kinases can be readily tested by assays known to those skilled in the art. For example, in vitro protein kinase assays may be conducted with a relevant purified protein kinase and an appropriate synthetic substrate to determine the inhibitory activities of the compounds. […] Reaction mixtures were incubated at 30° C. for 1 h, and reaction products were captured by binding to phosphocellulose (P81) filter plates. Incorporation of radioactive phosphate into the peptide substrate was determined by liquid scintillation counting. The potency of compounds in inhibiting CK2 is expressed as IC50, defined as the concentrations of compounds required to inhibit the enzymatic activity by 50%.
# recombinant CK2A2 = target: T2, recombinant CK2A2 (Homo sapiens, UniProt P19784); assay: CK2 kinase assay (CK2A2), [γ-33P]ATP filter-binding; assay type: biochemical; settings: recombinant CK2A2 5 nM, ATP 5 μM, 10 μM peptide substrate, 30° C. 1 h
# T2 construct: purchased Upstate Biotechnology
# Method: as §1
# HCT116 = assay: Cell proliferation inhibition assay (MTT, CellTiter96); assay type: cell-based; settings: Homo sapiens, HCT-116; HCT116 cells, 72 h with compound, MTT readout
# Method: B. Cell Proliferation Inhibition Assay
# Compounds were evaluated for their ability to inhibit cell proliferation, using an assay that measures mitochondrial metabolic activity, that is directly correlated with cell numbers. Cells were plated at 2000 cells/well in 96-well plates and were cultured for 24 h in RPMI-1640 supplemented with 2% fetal bovine serum, before test compounds were added. Compounds were diluted in culture medium such that the final concentration of dimethyl sulfoxide never exceeded 1%. Following the addition of compounds, the cells were cultured for an additional 72 h before cell viability was determined by measuring the conversion of 3-(4,5-dimethylthiazol-2-yl)-2,5-diphenyltetrazolium bromide (MTT) dye using the CellTiter96 kit (Promega).
# T1 sequence (P68400 whole entry): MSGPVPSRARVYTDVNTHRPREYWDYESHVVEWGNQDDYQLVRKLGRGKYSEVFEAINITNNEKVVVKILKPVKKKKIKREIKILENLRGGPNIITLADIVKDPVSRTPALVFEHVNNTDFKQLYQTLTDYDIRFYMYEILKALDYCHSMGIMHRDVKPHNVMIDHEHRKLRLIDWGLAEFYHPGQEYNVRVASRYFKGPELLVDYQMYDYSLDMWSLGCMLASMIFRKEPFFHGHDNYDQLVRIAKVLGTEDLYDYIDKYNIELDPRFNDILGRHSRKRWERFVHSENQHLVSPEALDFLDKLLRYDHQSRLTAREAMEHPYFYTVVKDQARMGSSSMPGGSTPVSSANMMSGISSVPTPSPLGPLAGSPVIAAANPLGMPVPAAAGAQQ
# T2 sequence (P19784 whole entry): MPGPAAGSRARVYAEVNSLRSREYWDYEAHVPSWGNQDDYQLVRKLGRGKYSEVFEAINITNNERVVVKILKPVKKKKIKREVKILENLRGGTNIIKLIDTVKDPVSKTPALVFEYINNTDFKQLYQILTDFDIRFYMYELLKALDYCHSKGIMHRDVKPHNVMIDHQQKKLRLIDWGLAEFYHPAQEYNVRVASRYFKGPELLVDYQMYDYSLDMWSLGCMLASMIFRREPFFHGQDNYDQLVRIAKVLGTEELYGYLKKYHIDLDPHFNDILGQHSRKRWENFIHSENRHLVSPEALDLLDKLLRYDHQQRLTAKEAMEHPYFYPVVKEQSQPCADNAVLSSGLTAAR
Compound,IC50 (recombinant CK2A1),IC50 (recombinant CK2A2),IC50 (HCT116)
"CN(C)CCOc1ccc(Nc2cc(N[C@H]3CC[C@H](N)CC3)nn3c(C(=O)Nc4ccncc4F)cnc23)cc1 [Example 501, 6-((trans-4-aminocyclohexyl)amino)-8-((4-(2-(dimethylamino)ethoxy)phenyl)amino)-N-(3-fluoro-4-pyridinyl)imidazo[1,2-b]pyridazine-3-carboxamide]",234 nM,87 nM,450 nM
"N[C@H]1CC[C@H](Nc2cc(Nc3ccccc3)c3ncc(C(=O)Nc4ccncn4)n3n2)CC1 [Example 518, 6-((trans-4-aminocyclohexyl)amino)-8-anilino-N-4-pyrimidinylimidazo[1,2-b] pyridazine-3-carboxamide]",58 nM,42 nM,170 nM
"O=C(Nc1ccncc1F)c1cnc2c(NC3CC3)cc(N[C@H]3CC[C@H](NCC(O)CO)CC3)nn12 (stereo partly drawn) [Example 524, 8-(cyclopropylamino)-6-((trans-4-((2,3-dihydroxypropyl)amino)cyclohexyl)amino)-N-(3-fluoro-4-pyridinyl)imidazo [1,2-b]pyridazine-3-carboxamide]",21 nM,4 nM,1150 nM
"NCCN[C@H]1CC[C@H](Nc2cc(NC3CC3)c3ncc(C(=O)Nc4ccnc(F)c4)n3n2)CC1 [Example 526, 6-((trans-4-((2-aminoethyl)amino)cyclohexyl)amino)-8-(cyclopropylamino)-N-(2-fluoro-4-pyridinyl)imidazo [1,2-b]pyridazine-3-carboxamide]",153 nM,61 nM,> 2500 nM
"O=C(Nc1ccnc(Cl)c1)c1cnc2c(NC3CC3)cc(N[C@H]3CC[C@H](N(CCO)CCO)CC3)nn12 [Example 534, 6-((trans-4-(bis(2-hydroxyethyl)amino)cyclohexyl)amino)-N-(2-chloro-4-pyridinyl)-8-(cyclopropylamino)imidazo [1,2-b]pyridazine-3-carboxamide]",559 nM,145 nM,1610 nM
"Cc1cc(Nc2cc(N[C@H]3CC[C@H](N)CC3)nn3c(C(=O)Nc4ccnc(Cl)c4)cnc23)nn1C [Example 542, 6-((trans-4-aminocyclohexyl)amino)-N-(2-chloro-4-pyridinyl)-8-((1,5-dimethyl-1H-pyrazol-3-yl)amino)imidazo[1,2-b]pyridazine-3-carboxamide]",71 nM,18 nM,290 nM
"O=C(Nc1ccnc(Cl)c1)c1cnc2c(Nc3ccon3)cc(N[C@H]3CC[C@H](O)CC3)nn12 [Example 549, N-(2-chloro-4-pyridinyl)-6-((trans-4-hydroxycyclohexyl)amino)-8-(3-isoxazolylamino) imidazo[1,2-b]pyridazine-3-carboxamide]",26.3 nM,0.03 nM,20 nM
"Cc1cc(Nc2cc(N[C@H]3CC[C@H](O)CC3)nn3c(C(=O)Nc4ccnc(Cl)c4)cnc23)nn1C [Example 553, N-(2-chloro-4-pyridinyl)-8-((1,5-dimethyl-1H-pyrazol-3-yl)amino)-6-((trans-4-hydroxycyclohexyl)amino)imidazo[1,2-b]pyridazine-3-carboxamide]",19.6 nM,2.1 nM,40 nM
"Cc1cc(Nc2cc(N[C@H]3CC[C@H](NC(=O)CC#N)CC3)nn3c(C(=O)Nc4ccnc(Cl)c4)cnc23)no1 [Example 560, N-(2-chloro-4-pyridinyl)-6-((trans-4-((cyanoacetyl)amino)cyclohexyl)amino)-8-((5-methyl-3-isoxazolyl)amino) imidazo[1,2-b]pyridazine-3-carboxamide]",12.5 nM,0.8 nM,870 nM
"N#CCC(=O)N[C@H]1CC[C@H](Nc2cc(Nc3nccs3)c3ncc(C(=O)Nc4ccnc(Cl)c4)n3n2)CC1 [Example 562, N-(2-chloro-4-pyridinyl)-6-((trans-4-((cyanoacetyl)amino)cyclohexyl)amino)-8-(1,3-thiazol-2-ylamino)imidazo [1,2-b]pyridazine-3-carboxamide]",9.7 nM,1.2 nM,60 nM

# More lines, in order of falling IC50 (recombinant CK2A1), values ahead:
IC50 (recombinant CK2A1),IC50 (recombinant CK2A2),IC50 (HCT116),Compound
428 nM,97 nM,890 nM,"O=C(Nc1ccnc(Cl)c1)c1cnc2c(NC3CC3)cc(NC3CCSCC3)nn12 [Example 571, N-(2-chloro-4-pyridinyl)-8-(cyclopropylamino)-6-(tetrahydro-2H-thiopyran-4-ylamino)imidazo[1,2-b]pyridazine-3-carboxamide]"
331 nM,42 nM,340 nM,"CC(C)CN[C@H]1CC[C@H](Nc2cc(NC3CC3)c3ncc(C(=O)Nc4ccnc(Cl)c4)n3n2)CC1 [Example 538, N-(2-chloro-4-pyridinyl)-8-(cyclopropylamino)-6-((trans-4-(isobutylamino)cyclohexyl)amino)imidazo [1,2-b]pyridazine-3-carboxamide]"
306 nM,73 nM,800 nM,"O=C(Nc1ccnc(Cl)c1)c1cnc2c(NC3CC3)cc(NC3CC[S+]([O-])CC3)nn12 (stereo not drawn) [Example 572, 4-((3-((2-chloro-4-pyridinyl)carbamoyl)-8-(cyclopropylamino)imidazo[1,2-b]pyridazin-6-yl)amino)tetrahydro-2H-thiopyranium-1-olate]"
28 nM,3 nM,260 nM,"O=C(Nc1ccnc(Cl)c1)c1cnc2c(NC3CC3)cc(N[C@H]3CC[C@H](NCCO)CC3)nn12 [Example 531, N-(2-chloro-4-pyridinyl)-8-(cyclopropylamino)-6-((trans-4-((2-hydroxyethyl)amino)cyclohexyl)amino) imidazo[1,2-b]pyridazine-3-carboxamide]"
5.5 nM,1 nM,80 nM,"CC(C)n1ccc(Nc2cc(N[C@H]3CC[C@H](NC(=O)CC#N)CC3)nn3c(C(=O)Nc4ccnc(Cl)c4)cnc23)n1 [Example 559, N-(2-chloro-4-pyridinyl)-6-((trans-4-((cyanoacetyl)amino)cyclohexyl)amino)-8-((1-isopropyl-1H-pyrazol-3-yl)amino)imidazo[1,2-b] pyridazine-3-carboxamide]"
